Data taken from ChEMBL document CHEMBL4732177 (J Med Chem, 2021).
Bridge positions count the residues as written; N and C are the ends. Square brackets hold non-standard residues; d marks the D form. Peptide text beside a SMILES is read from it. NMeR = CN[C@@H](CCCNC(=N)N)C(=O)O; Aad = N[C@@H](CCCC(=O)O)C(=O)O; AllylGly = C=CC[C@H](N)C(=O)O

Legend:
[1] = target: Neurotensin receptor type 2 (Homo sapiens, UniProt O95665); experiment: Displacement of [125I]Tyr3-neurotensin from human recombinant NTS2 stably expressed in human 1321N1 cell membranes incubated for 60 mins by gamma counter analysis; design: species or system Cell membrane
Chain of Neurotensin receptor type 2 (O95665 whole entry): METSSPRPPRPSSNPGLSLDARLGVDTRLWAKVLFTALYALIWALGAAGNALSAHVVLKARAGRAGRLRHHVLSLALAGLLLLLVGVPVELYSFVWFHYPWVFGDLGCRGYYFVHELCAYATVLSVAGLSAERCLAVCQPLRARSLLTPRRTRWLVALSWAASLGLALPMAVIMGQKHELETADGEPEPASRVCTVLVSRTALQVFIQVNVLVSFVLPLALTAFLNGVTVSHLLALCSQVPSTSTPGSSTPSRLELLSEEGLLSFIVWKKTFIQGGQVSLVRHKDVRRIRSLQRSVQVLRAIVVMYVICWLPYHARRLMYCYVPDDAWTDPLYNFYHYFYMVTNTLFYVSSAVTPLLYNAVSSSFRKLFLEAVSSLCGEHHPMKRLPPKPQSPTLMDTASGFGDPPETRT

[2] = target: Neurotensin receptor type 1 (Homo sapiens, UniProt P30989); experiment: Displacement of [125I]Tyr3-neurotensin from human recombinant NTS1 stably expressed in CHO-K1 cell membranes incubated for 60 mins by gamma counter analysis; design: species or system Cell membrane
Chain of Neurotensin receptor type 1 (Homo sapiens, UniProt P30989) (P30989 whole entry): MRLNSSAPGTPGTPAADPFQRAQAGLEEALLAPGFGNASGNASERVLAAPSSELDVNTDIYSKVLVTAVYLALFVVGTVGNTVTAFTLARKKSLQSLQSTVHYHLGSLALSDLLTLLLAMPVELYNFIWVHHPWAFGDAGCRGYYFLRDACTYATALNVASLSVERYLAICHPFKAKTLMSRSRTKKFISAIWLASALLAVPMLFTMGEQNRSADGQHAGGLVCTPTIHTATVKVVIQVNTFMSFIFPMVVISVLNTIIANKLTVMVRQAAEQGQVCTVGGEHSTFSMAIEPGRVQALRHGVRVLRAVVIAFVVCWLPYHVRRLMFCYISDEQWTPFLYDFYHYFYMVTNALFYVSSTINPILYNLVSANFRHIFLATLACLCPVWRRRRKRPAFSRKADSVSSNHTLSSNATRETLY

[3] = target: Neurotensin receptor type 1 (Mus musculus, UniProt O88319); experiment: Displacement of [3H]-neurotensin from NTS1 in mouse brain membrane incubated for 30 mins by liquid scintillation counter analysis; type: cell membranes
Chain of Neurotensin receptor type 1 (Mus musculus, UniProt O88319) (O88319 whole entry): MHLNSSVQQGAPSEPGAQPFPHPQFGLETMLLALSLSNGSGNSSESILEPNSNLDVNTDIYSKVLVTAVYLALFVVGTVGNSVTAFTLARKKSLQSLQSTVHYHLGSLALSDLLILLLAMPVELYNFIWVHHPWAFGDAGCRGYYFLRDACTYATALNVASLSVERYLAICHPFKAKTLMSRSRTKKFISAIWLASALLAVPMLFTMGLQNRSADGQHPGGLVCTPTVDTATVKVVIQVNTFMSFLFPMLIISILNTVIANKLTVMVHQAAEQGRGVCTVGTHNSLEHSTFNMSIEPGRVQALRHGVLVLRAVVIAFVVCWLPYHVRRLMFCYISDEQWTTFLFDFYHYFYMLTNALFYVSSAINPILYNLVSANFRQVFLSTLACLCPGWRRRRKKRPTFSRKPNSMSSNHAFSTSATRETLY

Row | Molecule | Ki [1] [nM] | Ki [2] [nM] | Ki [3] [nM]
1 | H-RRPYL-OH | 391 | > 100000 | 
2 | CC[C@H](C)[C@H](NC(=O)[C@H](Cc1ccc(O)cc1)NC(=O)[C@@H]1CCCN1C(=O)[C@H](CCCNC(=N)N)NC(=O)[C@H](CCCNC(=N)N)NC(=O)[C@@H]1CCCN1C(=O)[C@H](CCCCN)NC(=O)[C@H](CC(N)=O)NC(=O)[C@H](CCC(=O)O)NC(=O)[C@H](Cc1ccc(O)cc1)NC(=O)[C@H](CC(C)C)NC(=O)[C@H](C)N)C(=O)N[C@@H](CC(C)C)C(=O)O | 8.7 | 2 | 
3 | CC(C)C[C@H](NC(=O)[C@H](Cc1ccc(O)cc1)NC(=O)[C@H]1C/C=C\C[C@H](N)C(=O)N[C@@H](CCCCN)C(=O)N[C@@H](CCCCN)C(=O)N1)C(=O)O | 1100 | > 100000 | 
4 | CC[C@H](C)[C@H](NC(=O)[C@H](Cc1ccc(O)cc1)NC(=O)[C@@H]1CCCN1C(=O)[C@H](CCCNC(=N)N)NC(=O)[C@H](CCCNC(=N)N)NC(=O)[C@@H]1CCCN1C(=O)[C@H](CCCCN)NC(=O)[C@H](CC(N)=O)NC(=O)[C@H](C)NC(=O)[C@H](Cc1ccc(O)cc1)NC(=O)[C@H](CC(C)C)NC(=O)[C@@H]1CCC(=O)N1)C(=O)N[C@@H](CC(C)C)C(=O)O | 2.7 | 1.8 | 
5 | CC[C@H](C)[C@H](NC(=O)[C@H](Cc1ccc(O)cc1)NC(=O)[C@@H]1CCCN1C(=O)[C@@H](C)NC(=O)[C@H](CCCN=C(N)N)NC(=O)[C@@H]1CCCN1C(=O)[C@H](CCCCN)NC(=O)[C@H](CC(N)=O)NC(=O)[C@H](CCC(=O)O)NC(=O)[C@H](Cc1ccc(O)cc1)NC(=O)[C@H](CC(C)C)NC(=O)[C@@H]1CCC(=O)N1)C(=O)N[C@@H](CC(C)C)C(=O)O |  | 174 | 
6 | CC[C@@H](C)[C@H](NC(=O)[C@@H]1C/C=C\C[C@H](N)C(=O)N[C@@H](CCCCN)C(=O)N[C@@H](CCCCN)C(=O)N[C@@H](Cc2ccc(O)cc2)C(=O)N1)C(=O)N[C@@H](CC(C)C)C(=O)O | 1300 | > 10000 | 
7 | CC[C@@H](C)[C@H](NC(=O)[C@H](CC(C)C)NC(=O)[C@H](Cc1ccc(O)cc1)NC(=O)[C@@H]1C/C=C\C[C@H](N)C(=O)N[C@@H](CCCCN)C(=O)N[C@@H](CCCCN)C(=O)N1)C(=O)O | > 10000 | > 100000 | 
8 | CC[C@@H](C)[C@H](NC(=O)[C@H](Cc1ccc(O)cc1)NC(=O)[C@@H]1C/C=C\C[C@H](N)C(=O)N[C@@H](CCCCN)C(=O)N[C@@H](CCCCN)C(=O)N1)C(=O)N[C@@H](CC(C)C)C(=O)O | > 10000 | > 10000 | 
9 | CC[C@H](C)[C@H](NC(=O)[C@H](Cc1ccc(O)cc1)NC(=O)[C@H](C)NC(=O)[C@H](CCCNC(=N)N)NC(=O)[C@H](CCCNC(=N)N)NC(=O)[C@@H]1CCCN1C(=O)[C@H](CCCCN)NC(=O)[C@H](CC(N)=O)NC(=O)[C@H](CCC(=O)O)NC(=O)[C@H](Cc1ccc(O)cc1)NC(=O)[C@H](CC(C)C)NC(=O)[C@@H]1CCC(=O)N1)C(=O)N[C@@H](CC(C)C)C(=O)O | 16 | 161 | 
10 | CC[C@H](C)[C@H](NC(=O)[C@H](Cc1ccc(O)cc1)NC(=O)[C@H](CCCCN)NC(=O)[C@@H]1C/C=C\C[C@H](N)C(=O)N[C@@H](CCCCN)C(=O)N1)C(=O)N[C@@H](CC(C)C)C(=O)O (H-[AllylGly]K[AllylGly]KYIL-OH; staple (Z) 1-3) | > 10000 | > 100000 | 
11 | CC[C@H](C)[C@H](NC(=O)[C@H](Cc1ccc(O)cc1)NC(=O)[C@@H]1CCCN1C(=O)[C@H](CCCNC(=N)N)NC(=O)[C@@H](N)CCCNC(=N)N)C(=O)O | 620 | > 100000 | 
12 | CC(C)C[C@H](NC(=O)[C@H](Cc1ccc(O)cc1)NC(=O)[C@H]1C/C=C\C[C@@H](N)C(=O)N[C@@H](CCCCN)C(=O)N[C@@H](CCCCN)C(=O)N1)C(=O)O | 2200 | > 100000 | 
13 | CC[C@@H](C)[C@H](NC(=O)[C@H](Cc1ccc(O)cc1)NC(=O)[C@@H]1C/C=C\C[C@H](N)C(=O)N[C@@H](CCCCN)C(=O)N[C@@H](CCCCN)C(=O)N1)C(=O)O | > 10000 | > 100000 | 
14 | CC[C@H](C)[C@H](NC(=O)[C@H](Cc1ccc(O)cc1)NC(=O)[C@@H]1CCCN1C(=O)[C@H](CCCNC(=N)N)NC(=O)[C@H](CCCNC(=N)N)NC(=O)[C@@H]1CCCN1C(=O)[C@H](CCCCN)NC(=O)[C@H](CC(N)=O)NC(=O)[C@H](CCC(=O)O)NC(=O)[C@H](Cc1ccc(O)cc1)NC(=O)[C@H](CC(C)C)NC(=O)[C@@H]1CCC(=O)N1)C(=O)N[C@@H](C)C(=O)O | 655 | > 10000 | 
15 | CC(C)C[C@H](NC(=O)[C@@H]1CCCC(=O)N[C@@H](CCCNC(=N)N)C(=O)N[C@@H](CCCCN)C(=O)N2CCC[C@H]2C(=O)N[C@@H](Cc2c[nH]c3ccccc23)C(=O)N1)C(=O)O (RKPW[Aad]L-OH; lactam N-5) |  |  | 16
16 | CC[C@H](C)[C@H](NC(=O)[C@H](Cc1ccc(O)cc1)NC(=O)[C@@H]1CCCN1C(=O)[C@H](CCCNC(=N)N)NC(=O)[C@H](CCCNC(=N)N)NC(=O)[C@H](C)NC(=O)[C@H](CCCCN)NC(=O)[C@H](CC(N)=O)NC(=O)[C@H](CCC(=O)O)NC(=O)[C@H](Cc1ccc(O)cc1)NC(=O)[C@H](CC(C)C)NC(=O)[C@@H]1CCC(=O)N1)C(=O)N[C@@H](CC(C)C)C(=O)O | 4.6 | 2.9 | 
17 | CC[C@@H](C)[C@H](NC(=O)[C@H](Cc1ccc(O)cc1)NC(=O)[C@@H]1C/C=C\C[C@H](NC(=O)[C@@H](N)CCCCN)C(=O)N[C@@H](CCCCN)C(=O)N1)C(=O)N[C@@H](CC(C)C)C(=O)O | > 10000 | > 100000 | 
18 | CC[C@H](C)[C@H](NC(=O)[C@H](Cc1ccc(O)cc1)NC(=O)[C@@H]1CCCN1C(=O)[C@H](CCCNC(=N)N)NC(=O)[C@H](CCCNC(=N)N)NC(=O)[C@@H]1CCCN1C(=O)[C@H](CCCCN)NC(=O)[C@H](CC(N)=O)NC(=O)[C@H](CCC(=O)O)NC(=O)[C@H](Cc1ccc(O)cc1)NC(=O)[C@H](C)NC(=O)[C@@H]1CCC(=O)N1)C(=O)N[C@@H](CC(C)C)C(=O)O | 6.8 | 2.4 | 
19 | CC[C@H](C)[C@H](NC(=O)[C@H](Cc1ccc(O)cc1)NC(=O)[C@@H]1CCCN1C(=O)[C@H](CCCNC(=N)N)NC(=O)[C@H](CCCNC(=N)N)NC(=O)[C@@H]1CCCN1C(=O)[C@H](CCCCN)NC(=O)[C@H](C)NC(=O)[C@H](CCC(=O)O)NC(=O)[C@H](Cc1ccc(O)cc1)NC(=O)[C@H](CC(C)C)NC(=O)[C@@H]1CCC(=O)N1)C(=O)N[C@@H](CC(C)C)C(=O)O | 8.8 | 2.4 | 

The remaining lines, values ahead:

Row | Ki [1] [nM] | Ki [2] [nM] | Ki [3] [nM] | Molecule
20 | 8.7 | 2.8 |  | CC[C@H](C)[C@H](NC(=O)[C@H](Cc1ccc(O)cc1)NC(=O)[C@@H]1CCCN1C(=O)[C@H](CCCNC(=N)N)NC(=O)[C@H](CCCNC(=N)N)NC(=O)[C@@H]1CCCN1C(=O)[C@H](CCCCN)NC(=O)[C@H](CC(N)=O)NC(=O)[C@H](CCC(=O)O)NC(=O)[C@H](C)NC(=O)[C@H](CC(C)C)NC(=O)[C@@H]1CCC(=O)N1)C(=O)N[C@@H](CC(C)C)C(=O)O
21 | 95 | 75 |  | CC[C@H](C)[C@H](NC(=O)[C@H](Cc1ccc(O)cc1)NC(=O)[C@@H]1CCCN1C(=O)[C@H](CCCNC(=N)N)NC(=O)[C@H](C)NC(=O)[C@@H]1CCCN1C(=O)[C@H](CCCCN)NC(=O)[C@H](CC(N)=O)NC(=O)[C@H](CCC(=O)O)NC(=O)[C@H](Cc1ccc(O)cc1)NC(=O)[C@H](CC(C)C)NC(=O)[C@@H]1CCC(=O)N1)C(=O)N[C@@H](CC(C)C)C(=O)O
22 | 2500 | > 100000 |  | CC(C)C[C@H](NC(=O)[C@H](Cc1ccc(O)cc1)NC(=O)[C@H]1C/C=C\C[C@H](N)C(=O)N[C@@H](CCCCN)C(=O)N[C@@H](CCCCN)C(=O)N2CCC[C@H]2C(=O)N1)C(=O)O
23 | 200 | > 100000 |  | CC(C)C[C@H](NC(=O)[C@H](Cc1ccc(O)cc1)NC(=O)[C@H]1CCCN1C(=O)[C@@H]1C/C=C\C[C@H](N)C(=O)N[C@@H](CCCCN)C(=O)N[C@@H](CCCCN)C(=O)N1)C(=O)O
24 |  |  | 770 | CN[C@@H](CCCNC(=N)N)C(=O)N[C@H]1CCCCNC(=O)CC[C@@H](C(=O)N[C@@H](CC(C)C)C(=O)O)NC(=O)[C@H](Cc2c[nH]c3ccccc23)NC(=O)[C@@H]2CCCN2C1=O (H-[NMeR]KPWEL-OH; lactam 2-5)
25 | 100 | > 100000 |  | CC(C)C[C@H](NC(=O)[C@H](Cc1ccc(O)cc1)NC(=O)[C@@H]1C/C=C\C[C@@H](N)C(=O)N[C@@H](CCCCN)C(=O)N[C@@H](CCCCN)C(=O)N1)C(=O)O
26 | 590 | > 10000 |  | CC[C@H](C)[C@H](NC(=O)[C@H](C)NC(=O)[C@@H]1CCCN1C(=O)[C@H](CCCN=C(N)N)NC(=O)[C@H](CCCN=C(N)N)NC(=O)[C@@H]1CCCN1C(=O)[C@H](CCCCN)NC(=O)[C@H](CC(N)=O)NC(=O)[C@H](CCC(=O)O)NC(=O)[C@H](Cc1ccc(O)cc1)NC(=O)[C@H](CC(C)C)NC(=O)[C@@H]1CCC(=O)N1)C(=O)N[C@@H](CC(C)C)C(=O)O
27 | 90 | > 100000 |  | CC(C)C[C@H](NC(=O)[C@H](Cc1ccc(O)cc1)NC(=O)[C@@H]1CCCC[C@H](N)C(=O)N[C@@H](CCCCN)C(=O)N[C@@H](CCCCN)C(=O)N1)C(=O)O
28 | 1500 | > 100000 |  | CC(C)C[C@H](NC(=O)[C@H](Cc1ccc(O)cc1)NC(=O)[C@@H]1CSSC[C@H](N)C(=O)N[C@@H](CCCCN)C(=O)N[C@@H](CCCCN)C(=O)N1)C(=O)O (H-CKKCYL-OH; disulfide 1-4)
29 | 9.3 | 6 |  | CC[C@H](C)[C@H](NC(=O)[C@H](Cc1ccc(O)cc1)NC(=O)[C@@H]1CCCN1C(=O)[C@H](CCCNC(=N)N)NC(=O)[C@H](CCCNC(=N)N)NC(=O)[C@@H]1CCCN1C(=O)[C@H](C)NC(=O)[C@H](CC(N)=O)NC(=O)[C@H](CCC(=O)O)NC(=O)[C@H](Cc1ccc(O)cc1)NC(=O)[C@H](CC(C)C)NC(=O)[C@@H]1CCC(=O)N1)C(=O)N[C@@H](CC(C)C)C(=O)O
30 | 10 |  |  | CC[C@H](C)[C@H](NC(=O)[C@H](Cc1ccc(O)cc1)NC(=O)[C@@H]1CCCN1C(=O)[C@H](C)NC(=O)[C@H](CCCN=C(N)N)NC(=O)[C@@H]1CCCN1C(=O)[C@H](CCCCN)NC(=O)[C@H](CC(N)=O)NC(=O)[C@H](CCC(=O)O)NC(=O)[C@H](Cc1ccc(O)cc1)NC(=O)[C@H](CC(C)C)NC(=O)[C@@H]1CCC(=O)N1)C(=O)N[C@@H](CC(C)C)C(=O)O
